From patent US6852316B2, “Cancer treatment” (Queen Mary & Westfield College, priority 1998, dated 2005) come the findings set out here.

Format in all cases: cell-based
Assay [1] has as its system β1 integrin. The experiment in a line: Immunocytochemistry for β1 integrin expression in MCF-7 cancer cell line. Particulars: MCF-7 cells treated with A-II at 10^−5 M, versus control. The protocol: Immunocytochemical straining of both receptors was based on the standard streptavidinbiotin peroxidase method. For the optimal working concentration of both antibodies serial dilutions were performed. The AT1R antibody 6313/G2 in the range 1:1 to 1:500 and for anti-β1 integrin between 1:10 and 1:500.
For integrin B1 receptor straining both with and without A-II pre-treatment, harvested cells were plated onto sterile microscope slides within slide culture wells (Heraeus Instruments GmbH, Osterode am Harz, Germany) and incubated with fresh BCM. When sub-confluent the medium was replaced with serum-free BCM to which was added Angiotensin-II (A-II), or not in the case of controls which were subjected to otherwise identical preparation and straining. Angiotensin-II (A-II) was added in the concentration range 10^−5M to 10^−9M and incubated for 24 hours. The medium was then removed, the slides rinsed with PBS, air dried and stored frozen as above.
The slides, prepared as above, were removed from frozen storage and placed directly into 100% acetone (British Drug Houses) at −10° C. for 10 minutes. They were then air-dried for 10 minutes and rehydrated in 0.05 M Tris-buffered saline (TBS)(0.05 M sodium chloride, 0.05 M Trizma base, 36 mM hydrochloric acid, pH 7.6) twice for 3 minutes each. […]

Assay [2] relates to breast cancer cells. Briefly: Invasion chamber assay, IGF-I stimulated breast cancer cell invasion. The protocol: The effect of angiotensin-II (A-II) in inhibiting growth factor-induced stimulated cancer cell invasiveness was studied as a model system and the results are shown in FIG. 3. The study was carried out using an invasion chamber in which two compartments are separated by a perforated membrane coated in matrix protein. A chemoattractant, IGF-I, was added to the medium on one side of the chamber, and the breast cancer cells to the other. Invasiveness was measured by counting the cells that migrated from one chamber to the other.

Assay [3] deals with β1 integrin. The experiment in a line: 125I labelling and immunoprecipitation of β1 integrin, SDS-PAGE autoradiography. The settings on record: MCF-7 cells, A-II 10^−5 M for 24 hours, compared to control, non-reducing conditions. The protocol: Immunoprecipitation is a technique for the detection and quantification of target protein. It comprises the five steps of radiolabelling of the cell-membrane proteins, cell lysis, formation of the specific antibody-antigen complexes, extraction of these complexes and analysis of the radiolabelled target proteins contained within the immunoprecipitation. All experiments were performed in triplicate.
For immunoprecipitation experiments, MCF-7 cells were cultured in 5% FBS-supplemented MEM. When sub-confluent, the medium was removed and the cells washed with phosphate buffered saline (PBS) (0.15 M sodium chloride, 20 mM sodium monophosphate; pH 7.5). The medium was then replaced with serum-free MEM and treated with angiotensin-II (A-II) at a concentration of 10^−5 M for 24 hours. Control cells were cultured in serum-free medium only. On this occasion the cells were harvested not by trypsinisation, which may impair the immunoprecipitation process, but with a cell scraper. They were then gently passed repeatedly through a narrow pipette, to break down cell clusters, and centrifuged at 900 rpm per ten minutes.
The cell pellets as above were taken up in PBS and counted with the haemocytometer. Trypan blue exclusion was employed so that 1-2×10^6 viable cells were taken up in each 1 ml aliquot. […]

Assay [4] deals with breast cancer cells. Briefly: Breast cancer cell growth in culture, light microscopy.

Entries after “also recorded” stand apart in the source; their conditions may differ.

On to “Asp-Arg-Val-Tyr-Ile-His-Pro-Phe (DRVYIHPF; Sequence Source Uncertain) [angiotensin-II]”, for which, in the assay with β1 integrin [1], the “β1 integrin staining (expression of β1 integrin protein)” value is given as “increase in staining”. For the same substance, the “reduction in mean invasion” value in the assay on breast cancer cells [2] (A-II pre-treatment versus control, IGF-I chemoattractant) is recorded as “tenfold reduction”. In the assay with breast cancer cells [2] (cells treated with A-II prior to invasion assay, chemoattractant IGF-I, control 1.58%, p=0.0011), this substance showed a mean invasion of 0.15%. The “β1 integrin expression (density of protein band on gel autoradiograph)” value with β1 integrin [3] is “relative increase in density; also recorded: increased expression”. Moreover, the “stimulation of cell growth” value in the assay with breast cancer cells [4] (breast cancer cells in culture) is given as “did not stimulate cell growth”. Besides, in the assay with breast cancer cells [4] (grown in presence of angiotensin-II versus control cultures, light microscopy), the “size of cell clusters in culture” value was “larger clusters of cells”.
